According to US20230117034A1, “PYRAZOLOTRIAZINES” (Bayer Aktiengesellschaft, priority 2019, published 2023):
Read-outs that look alike come from different tables or passages of the source.

How the values were obtained:
[1] = test system: Human tumour cells (cell line panel); assay: Proliferation assay: cell line panel (crystal violet, 4 days); type: cell-based; details: read-out: Result Category, IC50 (mean)
Description: Human tumour cells were originally obtained from the American Type Culture Collection (ATCC), from Cell Line Services GmbH (CLS), from the Deutsche Sammlung von Mikroorganismen und Zellkulturen (DSMZ, German Collection of Microorganisms and Cell Cultures), from the Japanese Cancer Research Resources Bank (JCRB), from Public Health England, from the European Collection of Authenticated Cell Cultures (ECACC), from Asterand Biosciences, or from the National Cancer Institute (NCI). Cultivated tumour cells were plated at the density as indicated in Table 6 in 96-well multititer plates in 200 microL of their respective growth medium supplemented 10% fetal calf serum. After 24 hours, the cells of one plate (zero-point plate) were stained with crystal violet (see below), while the medium of the other plates was supplemented with the test substances in various concentrations (0 micromol/L, as well as in the range of 0.003-3 micromol/L; the final concentration of the solvent dimethyl sulfoxide was adjusted to 0.1%) using a Tecan HP D300 Digital Dispenser. The cells were incubated for 4 days in the presence of test substances. Cell proliferation was determined by staining the cells with crystal violet: the cells were fixed by adding 20 microL/measuring point of an 11% glutaric aldehyde solution for 15 minutes at room temperature. After three washing cycles of the fixed cells with water, the plates were dried at room temperature. The cells were stained by adding 100 microL/measuring point of a 0.1% crystal violet solution (pH 3.0). After three washing cycles of the stained cells with water, the plates were dried at room temperature. The dye was dissolved by adding 100 microL/measuring point of a 10% acetic acid solution. The extinction was determined by photometry at a wavelength of 595 nm. The change of cell number, in percent, was calculated by normalization of the measured values to the extinction values of the zero-point plate (=0%) and the extinction of the untreated (0 μM) cells (=100%). The […] values (inhibitory concentration at 50% of maximal effect) were determined by means of a 4 parameter fit.

[2] = target: T1, CDK12 protein level in CAL-120 breast cancer cells (Homo sapiens, UniProt Q9NYV4); assay: CDK12 protein level: Protein Simple (CDK12, CAL-120); type: cell-based; details: CAL-120 cells, 18 h with compound, CDK12/HSP90 peak area ratio vs vehicle, median, read-out: CDK12 protein level in CAL-120 breast ca cells, DC50-[mol/l] (median)
T1 construct: endogenous in cells; host or cells: CAL-120 human breast cancer cells (DSMZ ACC 459)
T1 sequence (Q9NYV4 whole entry): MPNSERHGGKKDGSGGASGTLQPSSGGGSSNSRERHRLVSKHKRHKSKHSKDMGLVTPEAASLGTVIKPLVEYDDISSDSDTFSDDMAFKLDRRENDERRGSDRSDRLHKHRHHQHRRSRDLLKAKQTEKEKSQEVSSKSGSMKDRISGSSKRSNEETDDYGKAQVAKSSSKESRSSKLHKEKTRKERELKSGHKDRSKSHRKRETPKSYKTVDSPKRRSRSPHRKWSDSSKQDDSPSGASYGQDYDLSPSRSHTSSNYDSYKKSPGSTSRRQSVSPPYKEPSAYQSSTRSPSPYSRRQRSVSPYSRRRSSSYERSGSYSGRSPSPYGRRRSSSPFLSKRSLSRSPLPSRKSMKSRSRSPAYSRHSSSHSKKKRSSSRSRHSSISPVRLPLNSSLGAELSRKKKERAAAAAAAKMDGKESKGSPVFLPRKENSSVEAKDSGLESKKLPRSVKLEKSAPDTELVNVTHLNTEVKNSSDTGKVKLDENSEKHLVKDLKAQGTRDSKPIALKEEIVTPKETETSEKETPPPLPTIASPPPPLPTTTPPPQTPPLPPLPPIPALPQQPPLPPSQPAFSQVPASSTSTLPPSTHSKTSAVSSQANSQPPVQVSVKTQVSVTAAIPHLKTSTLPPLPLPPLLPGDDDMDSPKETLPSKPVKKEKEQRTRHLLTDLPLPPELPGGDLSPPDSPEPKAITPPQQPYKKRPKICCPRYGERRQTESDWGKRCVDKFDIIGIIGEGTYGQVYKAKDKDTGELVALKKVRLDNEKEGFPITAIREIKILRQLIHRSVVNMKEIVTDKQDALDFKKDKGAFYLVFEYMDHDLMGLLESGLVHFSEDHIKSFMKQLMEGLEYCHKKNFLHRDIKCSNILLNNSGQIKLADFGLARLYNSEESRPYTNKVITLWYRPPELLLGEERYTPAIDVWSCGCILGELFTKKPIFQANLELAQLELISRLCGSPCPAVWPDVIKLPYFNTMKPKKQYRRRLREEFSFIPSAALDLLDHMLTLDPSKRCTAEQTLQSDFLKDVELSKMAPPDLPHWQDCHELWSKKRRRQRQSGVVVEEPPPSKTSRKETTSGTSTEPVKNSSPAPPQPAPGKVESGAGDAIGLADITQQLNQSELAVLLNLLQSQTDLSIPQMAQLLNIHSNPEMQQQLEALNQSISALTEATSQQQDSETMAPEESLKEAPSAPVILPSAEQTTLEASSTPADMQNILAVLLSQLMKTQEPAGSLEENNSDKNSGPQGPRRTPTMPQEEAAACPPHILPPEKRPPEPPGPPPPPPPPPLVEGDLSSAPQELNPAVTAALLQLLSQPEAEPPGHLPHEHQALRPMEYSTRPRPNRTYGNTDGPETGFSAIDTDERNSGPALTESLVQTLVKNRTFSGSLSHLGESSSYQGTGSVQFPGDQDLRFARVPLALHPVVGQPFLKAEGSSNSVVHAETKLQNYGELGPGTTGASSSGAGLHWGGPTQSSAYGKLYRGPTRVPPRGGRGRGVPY
T1 sequence (O75909 whole entry partner): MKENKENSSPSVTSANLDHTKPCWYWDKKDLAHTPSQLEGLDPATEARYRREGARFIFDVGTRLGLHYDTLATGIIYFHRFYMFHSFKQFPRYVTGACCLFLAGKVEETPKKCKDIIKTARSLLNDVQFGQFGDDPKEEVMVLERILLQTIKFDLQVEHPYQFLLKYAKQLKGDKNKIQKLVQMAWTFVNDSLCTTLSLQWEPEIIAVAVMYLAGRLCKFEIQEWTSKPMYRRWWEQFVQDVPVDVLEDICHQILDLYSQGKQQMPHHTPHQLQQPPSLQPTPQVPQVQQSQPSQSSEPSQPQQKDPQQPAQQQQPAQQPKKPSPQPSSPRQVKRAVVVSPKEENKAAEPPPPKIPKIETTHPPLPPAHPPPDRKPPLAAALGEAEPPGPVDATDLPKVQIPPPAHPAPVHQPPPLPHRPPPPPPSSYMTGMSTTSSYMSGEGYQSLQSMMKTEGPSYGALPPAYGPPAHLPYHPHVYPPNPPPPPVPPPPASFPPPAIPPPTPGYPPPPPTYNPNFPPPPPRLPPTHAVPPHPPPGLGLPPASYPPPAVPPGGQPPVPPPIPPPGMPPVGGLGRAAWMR
Description: CAL-120 human breast cancer cells (DSMZ ACC 459) were seeded at 300,000 cells/well in 6-well plates containing 2 mL of growth medium (DMEM, 10% FCS, glutamine) and incubated for 24 h at 37° C. in an humidified incubator. Test compounds were added at various concentrations, control wells received solvent (DMSO), and the plates were incubated for another 18 h at 37° C. Cells were washed 2 times with PBS and lysed in 75 microL lysis buffer (MSD-Puffer (MSD, #R60TX-2), +1% 505S+PhosSTOP (Roche #04906837001)+complete mini (Roche #04693159001)) by scraping. The lysates were pushed 2 times through Qiashedders followed by centrifugation at 14,000 rpm for 30-50 sec. The supernatant was stored at −20° C. Proteins were separated by applying 0.4 microgramms of protein lysate to Protein Simple 66-440 kDa (Protein Simple #SM-S002) size assay columns on a PEGGY SUE or SALLY SUE equipment according to the supplier's manual. CDK12 and HSP90 (loading control) were detected using anti-human CDK12 antibody (Cell Signaling Technologies (CST) #11793) at 1:25 dilution and anti-human HSP90 antibody (CST #4877) at 1:5,000 dilution. CDK12 and HSP90 peak areas were determined using Protein Simple Compass software. Ratio of CDK12/HSP90 peak areas were calculated for each sample, and […] values (degrading concentration to achieve 50% reduction relative to vehicle treated control) were determined by means of a 4 parameter fit.

IC50 ([1]; A673, sarcoma, 5000 cells/well): ≤ 30 nM
IC50 ([1]; AU565, breast cancer, HER2 positive, 4000 cells/well): ≤ 30 nM
IC50 ([1]; BT-474, BT474, breast cancer, HER2 positive, 4000 cells/well): ≤ 30 nM
IC50 ([1]; BT-549, BT549, breast cancer, 4000 cells/well): ≤ 30 nM
IC50 ([1]; CAL-120, breast cancer, triple-negative, 4000 cells/well): ≤ 30 nM
IC50 ([1]; COV318, ovarian cancer, 4000 cells/well): ≥ 100 nM
IC50 ([1]; COV362, ovarian cancer, 4000 cells/well): ≥ 100 nM
IC50 ([1]; Calu-3, lung cancer, non-small cell, 4000 cells/well): 30 to 100 nM
IC50 ([1]; DLD-1, DLD1, colorectal cancer, 4000 cells/well): 30 to 100 nM
IC50 ([1]; DMS-79, DMS79, lung cancer, small cell, 5000 cells/well): 30 to 100 nM
IC50 ([1]; DU-145, DU145, prostate cancer, 3000 cells/well): ≥ 100 nM
IC50 ([1]; EFM-192A, EFM192A, breast cancer, HER2 positive, 4000 cells/well): 30 to 100 nM
IC50 ([1]; HCC202, breast cancer, HER2 positive, 5000 cells/well): ≤ 30 nM
IC50 ([1]; HCC366, lung cancer, non-small cell, 4000 cells/well): 30 to 100 nM
IC50 ([1]; HCC1143, breast cancer, triple-negative, 4000 cells/well): ≤ 30 nM
IC50 ([1]; HCC1419, breast cancer, HER2 positive, 4000 cells/well): ≥ 100 nM
IC50 ([1]; HCC1599, breast cancer, triple-negative, 5000 cells/well): ≥ 100 nM
IC50 ([1]; HCC1806, breast cancer, triple-negative, 4000 cells/well): ≥ 100 nM
IC50 ([1]; HCC1937, breast cancer, triple-negative, 5000 cells/well): ≥ 100 nM
IC50 ([1]; HCC1954, breast cancer, HER2 positive, 4000 cells/well): ≤ 30 nM
IC50 ([1]; HCC2157, breast cancer, triple-negative, 5000 cells/well): ≤ 30 nM
IC50 ([1]; HCT-116, HCT116, colorectal cancer, 3000 cells/well): ≥ 100 nM
IC50 ([1]; HT-29, HT29, colorectal cancer, 2000 cells/well): ≤ 30 nM
IC50 ([1]; HT-144, melanoma, 4000 cells/well): ≥ 100 nM
IC50 ([1]; HUH-6clone5, liver cancer, 4000 cells/well): ≥ 100 nM
IC50 ([1]; HUH-7, liver cancer, 4000 cells/well): ≤ 30 nM
IC50 ([1]; HeLa, cervical cancer, 3000 cells/well): 30 to 100 nM
IC50 ([1]; JHH7, JHH-7, liver cancer, 4000 cells/well): ≤ 30 nM
IC50 ([1]; JHH-4, liver cancer, 4000 cells/well): 30 to 100 nM
IC50 ([1]; JIMT-1, JIMT1, breast cancer, HER2 positive, 4000 cells/well): ≤ 30 nM
IC50 ([1]; KYSE−410, estophageal cancer, 4000 cells/well): 30 to 100 nM
IC50 ([1]; LNCap, prostate cancer, 5000 cells/well): 30 to 100 nM
IC50 ([1]; Lovo, colorectal cancer, 4000 cells/well): 30 to 100 nM
IC50 ([1]; MCF7, breast cancer, 4000 cells/well): ≥ 100 nM
IC50 ([1]; MDA-MB-231, breast cancer, triple-negative, 4000 cells/well): ≤ 30 nM
IC50 ([1]; MDA-MB-361, breast cancer, HER2 positive, 5000 cells/well): 30 to 100 nM
IC50 ([1]; MDA-MB-436, breast cancer, triple-negative, 4000 cells/well): ≤ 30 nM
IC50 ([1]; MDA-MB-468, breast cancer, triple-negative, 4000 cells/well): ≤ 30 nM
IC50 ([1]; MKN-1, MKN1, gastric cancer, 4000 cells/well): 30 to 100 nM
IC50 ([1]; NCI-H23, lung cancer, non-small cell, 3000 cells/well): 30 to 100 nM
IC50 ([1]; NCI-H69, lung cancer, small cell, 4000 cells/well): 30 to 100 nM
IC50 ([1]; NCI-H82, lung cancer, small cell, 4000 cells/well): 30 to 100 nM
IC50 ([1]; NCI-H345, lung cancer, small cell, 5000 cells/well): 30 to 100 nM
IC50 ([1]; NCI-H446, lung cancer, small cell, 4000 cells/well): 30 to 100 nM
IC50 ([1]; NCI-H460, lung cancer, non-small cell, 3000 cells/well): ≥ 100 nM
IC50 ([1]; NCI-H526, lung cancer, small cell, 4000 cells/well): 30 to 100 nM
IC50 ([1]; NCI-H1155, lung cancer, non-small cell, 4000 cells/well): 30 to 100 nM
IC50 ([1]; NCI-H1299, lung cancer, non-small cell, 4000 cells/well): 30 to 100 nM
IC50 ([1]; NCI-H1623, lung cancer, non-small cell, 5000 cells/well): 30 to 100 nM
IC50 ([1]; NCI-H1734, lung cancer, non-small cell, 5000 cells/well): ≤ 30 nM
IC50 ([1]; NCI-H1793, lung cancer, non-small cell, 5000 cells/well): 30 to 100 nM
IC50 ([1]; NCI-H1836, lung cancer, small cell, 5000 cells/well): 30 to 100 nM
IC50 ([1]; NCI-H1838, lung cancer, non-small cell, 4000 cells/well): ≤ 30 nM
IC50 ([1]; NCI-H1975, lung cancer, non-small cell, 3000 cells/well): 30 to 100 nM
IC50 ([1]; NCI-H2009, lung cancer, non-small cell, 5000 cells/well): 30 to 100 nM
IC50 ([1]; NCI-H2029, lung cancer, small cell, 5000 cells/well): ≤ 30 nM
IC50 ([1]; NCI-H2030, lung cancer, non-small cell, 4000 cells/well): ≤ 30 nM
IC50 ([1]; NCI-H2405, lung cancer, non-small cell, 4000 cells/well): ≥ 100 nM
IC50 ([1]; NCI-N87, gastric cancer, 4000 cells/well): ≤ 30 nM
IC50 ([1]; OVCAR-3, OVCAR3, ovarian cancer, 5000 cells/well): 30 to 100 nM
IC50 ([1]; OVCAR-8, OVCAR8, ovarian cancer, 4000 cells/well): 30 to 100 nM
IC50 ([1]; PC-3, prostate cancer, 3000 cells/well): 30 to 100 nM
IC50 ([1]; PLC/PRF/5, liver cancer, 4000 cells/well): ≤ 30 nM
IC50 ([1]; SK-BR-3, breast cancer, HER2 positive, 5000 cells/well): ≤ 30 nM
IC50 ([1]; SK-HEP1, SK-HEP-1, liver cancer, 4000 cells/well): ≤ 30 nM
IC50 ([1]; SK-OV-3, ovarian cancer, 4000 cells/well): ≥ 100 nM
IC50 ([1]; SNU-449, SNU449, liver cancer, 4000 cells/well): 30 to 100 nM
IC50 ([1]; SUM149, breast cancer, triple-negative, 4000 cells/well): ≤ 30 nM
IC50 ([1]; SW480, colorectal cancer, 3000 cells/well): ≤ 30 nM
IC50 ([1]; SW-620, SW620, colorectal cancer, 3000 cells/well): ≤ 30 nM
IC50 ([1]; U2OS, U2-OS, sarcoma, 5000 cells/well): ≤ 30 nM
IC50 ([1]; U-251, U251MG, glioblastoma, 3000 cells/well): 30 to 100 nM
DC50 [2]: 0.476 nM
Compound: Brc1cnn2c(NCc3nc4ccccc4[nH]3)nc(N3CCOCC3)nc12 [Example 4, N-[(1H-benzimidazol-2-yl)methyl]-8-bromo-2-(morpholin-4-yl)pyrazolo[1,5-a][1,3,5]triazin-4-amine]
IC50 ([1]; HCC70, breast cancer, triple-negative, 5000 cells/well): 30 to 100 nM
